Laboratory results published in patent US6689778B2, “Inhibitors of Src and Lck protein kinases” (Vertex Pharmaceuticals Incorporated, priority 2001, dated 2004).

Columns and labels:
human Src kinase = biological target: T1, human Src kinase (Homo sapiens, UniProt P12931); test: Src inhibition assay (radioactivity-based assay A or spectrophotometric assay B); assay type: biochemical; conditions: recombinant human Src, poly Glu-Tyr substrate; assay A or B not specified
T1 construct: full length recombinant human Src kinase (from Upstate Biotechnology, cat. no. 14-117); purchased Upstate Biotechnology 14-117; host or cells: baculovirus-infected (insect) cells
T1 sequence (P12931 whole entry): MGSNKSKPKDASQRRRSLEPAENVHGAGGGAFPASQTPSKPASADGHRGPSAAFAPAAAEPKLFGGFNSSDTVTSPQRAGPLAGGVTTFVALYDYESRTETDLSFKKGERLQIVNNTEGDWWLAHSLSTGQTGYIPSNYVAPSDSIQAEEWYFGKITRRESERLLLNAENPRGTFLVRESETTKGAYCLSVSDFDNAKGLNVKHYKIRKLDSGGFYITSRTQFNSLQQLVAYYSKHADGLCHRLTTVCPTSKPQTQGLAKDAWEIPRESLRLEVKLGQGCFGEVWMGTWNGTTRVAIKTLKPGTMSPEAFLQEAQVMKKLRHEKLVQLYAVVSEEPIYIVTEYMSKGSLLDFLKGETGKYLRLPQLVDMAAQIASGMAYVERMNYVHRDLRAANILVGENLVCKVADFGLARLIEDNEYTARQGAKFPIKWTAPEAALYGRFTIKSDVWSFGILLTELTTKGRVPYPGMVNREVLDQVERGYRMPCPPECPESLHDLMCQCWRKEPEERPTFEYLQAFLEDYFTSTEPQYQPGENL
Protocol: The compounds were evaluated as inhibitors of human Src kinase using either a radioactivity-based assay or spectrophotometric assay.
(§1) The compounds were assayed as inhibitors of full length recombinant human Src kinase (from Upstate Biotechnology, cat. no. 14-117) expressed and purified from baculo viral cells. Src kinase activity was monitored by following the incorporation of ^33P from ATP into the tyrosine of a random poly Glu-Tyr polymer substrate of composition, Glu:Tyr=4:1 (Sigma, cat. no. P-0275). The following were the final concentrations of the assay components: 0.05 M HEPES, pH 7.6, 10 mM MgCl2, 2 mM DTT, 0.25 mg/ml BSA, 10 μM ATP (1-2 μCi ^33P-ATP per reaction), 5 mg/ml poly Glu-Tyr, and 1-2 units of recombinant human Src kinase. In a typical assay, all the reaction components with the exception of ATP were pre-mixed and aliquoted into assay plate wells. Inhibitors dissolved in DMSO were added to the wells to give a final DMSO concentration of 2.5%. The assay plate was incubated at 30° C. for 10 minutes before initiating the reaction with ^33P-ATP. After 20 minutes of reaction, the reactions were quenched with 150 μl of 10% trichloroacetic acid (TCA) containing 20 mM Na3PO4. The quenched samples were then transferred to a 96-well filter plate (Whatman, UNI-Filter GF/F Glass Fiber Filter, cat no. 7700-3310) installed on a filter plate vacuum manifold. Filter plates were washed four times with 10% TCA containing 20 mM Na3PO4 and then 4 times with methanol. 200 μl of scintillation fluid was then added to each well. The plates were sealed and the amount of radioactivity associated with the filters was quantified on a TopCount scintillation counter. The radioactivity incorporated was plotted as a function of the inhibitor concentration. The data was fitted to a competitive inhibition kinetics model to get the Ki for the compound.
(§2) The ADP produced from ATP by the human recombinant Src kinase-catalyzed phosphorylation of poly Glu-Tyr substrate was quanitified using a coupled enzyme assay (Fox et al (1998) Protein Sci 7, 2249). In this assay one molecule of NADH is oxidised to NAD for every molecule of ADP produced in the kinase reaction. The disappearance of NADH can be conveniently followed at 340 nm.
(§3) The following were the final concentrations of the assay components: 0.025 M HEPES, pH 7.6, 10 mM MgCl2, 2 mM DTT, 0.25 mg/ml poly Glu-Tyr, and 25 nM of recombinant human Src kinase. Final concentrations of the components of the coupled enzyme system were 2.5 mM phosphoenolpyruvate, 200 μM NADH, 30 μg/ml pyruvate kinase and 10 μg/ml lactate dehydrogenase.
(§4) In a typical assay, all the reaction components with the exception of ATP were pre-mixed and aliquoted into assay plate wells. Inhibitors dissolved in DMSO were added to the wells to give a final DMSO concentration of 2.5%. The assay plate was incubated at 30° C. for 10 minutes before initiating the reaction with 100 μM ATP. The absorbance change at 340 nm with time, the rate of the reaction, was monitored on a molecular devices plate reader. The data of rate as a function of the inhibitor concentration was fitted to compettive inhibition kinetics model to get the Ki for the compound.

human Lck kinase = human Lck kinase (UniProt P06239); test: Lck inhibition assay (radioactivity-based assay A or spectrophotometric assay B); assay type: biochemical; conditions: poly Glu-Tyr substrate; assay A or B not specified; read-out: Lck Activity (Ki class)
Protocol: The compounds were evaluated as inhibitors of human Lck kinase using either a radioactivity-based assay or spectrophotometric assay.
as §1, with “length bovine thymus Lck” for “length recombinant human Src”, “no. 14-106)” for “no. 14-117)”, “cells. Lck” for “cells. Src”, “components: 0.025” for “components: 0.05”, “20 min” for “20 minutes”
as §2, with “Lck” for “Src”
as §3, with “DTT, 5” for “DTT, 0.25”, “and 50” for “and 25”, “human Lck” for “human Src”
as §4, with “150” for “100”, “competitive” for “compettive”

| Structure (SMILES) | Ki (human Src kinase) | Ki (human Lck kinase) |
| --- | --- | --- |
| Cc1onc(C2CCCCC2)c1-c1ccnc(Nc2cccc(OCCCCN3CCOCC3)c2)n1 [IIIa-24] |  | < 100 nM |
| Cc1onc(C2CCCCC2)c1-c1ccnc(Nc2cccc(OCCCCN3CCCC3)c2)n1 [IIIa-25] |  | < 100 nM |
| Cc1onc(C2CCCCC2)c1-c1ccnc(Nc2cccc(OCCCCN3CCCCC3)c2)n1 [IIIa-26] |  | < 100 nM |
| Cc1onc(C2CCCCC2)c1-c1ccnc(Nc2cccc(OC3CCCN(C(=O)OC(C)(C)C)C3)c2)n1 (centres unmarked) [IIIa-28] |  | > 1000 nM |
| Cc1onc(C2CCCCC2)c1-c1ccnc(Nc2cccc(OC3CCCNC3)c2)n1 (centres unmarked) [IIIa-29] |  | < 100 nM |
| Cc1onc(C2CCCCC2)c1-c1ccnc(Nc2cccc(OCC3CCCN(C(=O)OC(C)(C)C)C3)c2)n1 (centres unmarked) [IIIa-30] |  | > 1000 nM |
| Cc1onc(C2CCCCC2)c1-c1ccnc(Nc2cccc(OCC3CCCNC3)c2)n1 (centres unmarked) [IIIa-31] |  | < 100 nM |
| COc1cc(Nc2ncc(C(=O)O)c(-c3c(C4CCCCC4)noc3C)n2)cc(OC)c1 [IIIb-24] |  | > 1000 nM |
| COc1cc(Nc2ncc(CO)c(-c3c(C4CCCCC4)noc3C)n2)cc(OC)c1 [IIIb-25] |  | > 1000 nM |
| COc1cc(Nc2ncc(C(N)=O)c(-c3c(C4CCCCC4)noc3C)n2)cc(OC)c1 [IIIb-26] |  | > 1000 nM |
| COc1cc(Nc2ncc(C#N)c(-c3c(C4CCCCC4)noc3C)n2)cc(OC)c1 [IIIb-27] |  | 100 to 1000 nM |
| CCc1onc(C2CCCCC2)c1-c1nc(Nc2cccc(O)c2)ncc1C [IIIb-28] | < 100 nM | < 100 nM |
| CCCOCc1cnc(Nc2cc(OC)cc(OC)c2)nc1-c1c(C2CCCCC2)noc1C [IIIb-29] |  | < 100 nM |
| Cc1onc(C2CCCCC2)c1-c1ccnc(Nc2cccc(NC(=O)CCN3CCCCC3)c2)n1 [Va-1] | < 100 nM | < 100 nM |

Further lines, results first:

| Ki (human Src kinase) | Ki (human Lck kinase) | Structure (SMILES) |
| --- | --- | --- |
| < 100 nM | < 100 nM | Cc1onc(C2CCCCC2)c1-c1ccnc(Nc2cccc(OCCOC3CCCCO3)c2)n1 (centres unmarked) [IIIa-1] |
| < 100 nM | < 100 nM | Cc1onc(C2CCCCC2)c1-c1ccnc(Nc2cccc(OCCN3CCOCC3)c2)n1 [IIIa-2] |
| < 100 nM | < 100 nM | Cc1onc(C2CCCCC2)c1-c1ccnc(Nc2cccc(OCCN3CCCC3)c2)n1 [IIIa-3] |
| < 100 nM | < 100 nM | Cc1onc(C2CCCCC2)c1-c1ccnc(Nc2cccc(OCCN3CCCCC3)c2)n1 [IIIa-4] |
| < 100 nM | < 100 nM | Cc1onc(C2CCCCC2)c1-c1ccnc(Nc2cccc(OCCN3CCC(O)CC3)c2)n1 [IIIa-5] |
| < 100 nM | < 100 nM | Cc1onc(C2CCCCC2)c1-c1ccnc(Nc2cccc(OCCN3CCC(CO)CC3)c2)n1 [IIIa-6] |
| < 100 nM | < 100 nM | Cc1onc(C2CCCCC2)c1-c1ccnc(Nc2cccc(OCCN3CCC[C@H]3CO)c2)n1 [IIIa-7] |
| < 100 nM | < 100 nM | Cc1onc(C2CCCCC2)c1-c1ccnc(Nc2cccc(OCCN3CCN(CCO)CC3)c2)n1 [IIIa-8] |
|  | < 100 nM | Cc1onc(C2CCCCC2)c1-c1ccnc(Nc2cccc(OCCCN3CCC(O)CC3)c2)n1 [IIIa-9] |
|  | < 100 nM | Cc1onc(C2CCCCC2)c1-c1ccnc(Nc2cccc(OCCCN3CCC(CO)CC3)c2)n1 [IIIa-10] |
|  | < 100 nM | Cc1onc(C2CCCCC2)c1-c1ccnc(Nc2cccc(OCCCN3CCC[C@H]3CO)c2)n1 [IIIa-11] |
|  | < 100 nM | Cc1onc(C2CCCCC2)c1-c1ccnc(Nc2cccc(OCCCN3CCN(CCO)CC3)c2)n1 [IIIa-12] |
|  | < 100 nM | Cc1onc(C2CCCCC2)c1-c1ccnc(Nc2cccc(OCCCN3CCCC(O)C3)c2)n1 (centres unmarked) [IIIa-13] |
|  | < 100 nM | Cc1onc(C2CCCCC2)c1-c1ccnc(Nc2cccc(OCCCN3CCOCC3)c2)n1 [IIIa-15] |
|  | < 100 nM | Cc1onc(C2CCCCC2)c1-c1ccnc(Nc2cccc(OCCCN3CCCC3)c2)n1 [IIIa-16] |
|  | < 100 nM | Cc1onc(C2CCCCC2)c1-c1ccnc(Nc2cccc(OCCCN3CCCCC3)c2)n1 [IIIa-17] |
|  | < 100 nM | Cc1onc(C2CCCCC2)c1-c1ccnc(Nc2cccc(OCCCN3CCNCC3)c2)n1 [IIIa-18] |
|  | < 100 nM | Cc1onc(C2CCCCC2)c1-c1ccnc(Nc2cccc(OCCCCN3CCC(O)CC3)c2)n1 [IIIa-19] |
|  | < 100 nM | Cc1onc(C2CCCCC2)c1-c1ccnc(Nc2cccc(OCCCCN3CCN(CCO)CC3)c2)n1 [IIIa-22] |
|  | < 100 nM | CCN1CCN(CCCCOc2cccc(Nc3nccc(-c4c(C5CCCCC5)noc4C)n3)c2)CC1 [IIIa-23] |
